This note sets out measurements from patent publication US10195189B2, “2-phenethenyltetrahydro isoquinolines useful as anti-HIV compounds” (priority 2014, dated 2019).

As usually defined, the EC50 is the concentration giving half of the maximal effect. A higher EC50 goes with weaker potency.

In this assay the test system is HIV-1 NL4-3 viral clone expressing Renilla luciferase. Put plainly: microbe, parasite or virus in culture. The class given is cell-based. To be noted: Human immunodeficiency virus 1, NL43, MT2, 96 h. As to the method: Protocol for MT-2 Spread Assay
The present assay was used to screen candidate antiviral compounds by quantification of virus spread and production over several rounds of infection in vitro. MT-2, a HIV-1 permissive human T-cell line, was seeded in microtiter plates and was simultaneously treated with serially diluted compound and inoculated with a HIV-1 NL4-3 viral clone engineered to express Renilla luciferase in place of Net Following treatment, the culture was incubated for 96 hours. After the incubation, media was collected and used to estimate relative infectivity on the indicator cell line, TZM-bl. Additionally, viral spread was quantified by measuring luciferase activity via a commercially available luciferase substrate. In parallel, MT-2 cells were seeded and inoculated with mock virus in the presence of serially diluted compound. Compound toxicity was quantified 96 hours after treatment with AlamarBlue.
MT-2 (NIH Aids reagent program 237) cells were grown and maintained in an incubator at 37° C. with 5% CO2 using a basal medium of RPMI-1640 supplemented with 10% FBS. Cells were seeded in 100 μl at 2×10^4 cells/well in white walled 96-well microtiter plates. Candidate compounds were 3-fold serially diluted in the appropriate solvent. Solvent without compound was used as a no drug reference. Cells were inoculated at a multiplicity of 0.027 with an HIV-1 NL4-3 virus stock engineered to express Renilla luciferase in place of Net Diluted virus stock was first added to serially diluted compound. Compound and virus were delivered to cells in an equal volume (100 μl) and treated cultures were returned to the incubator for 96 hours. In parallel, plates for cytotoxicity estimates were prepared in the same way except cells were plated in clear walled 96-well microtiter plates and were mock infected.
At 96 hours post infection, 100 μl virus containing culture supernatant was collected from the treated and infected cultures and serially diluted in DMEM supplemented with 10% FBS, 1% sodium pyruvate, and 20 μg/ml DEAE dextran. One day prior, TZM-bl (ATCC PTA-5659) were cultured in basal medium of DMEM supplemented with 10% FBS and 1% sodium pyruvate and seeded at 7.5×10^3 cells/well in black walled 96-well microtiter plates. Diluted virus containing culture supernatant was transferred to TZM-bl cultures and incubated for 48 hours at 37° C. with 5% CO2. Infected TZM-bl cultures were fixed for 5 minutes with a 1% formaldehyde/0.2% gluteraldehyde/PBS solution then washed three times with PBS. Fixed cultures were incubated at 37° C. for 25 minutes with a 200 μg/ml MUG (4-Methylumbelliferyl β-D-[…])/DMEM solution. The reaction was stopped with an equal volume of 1M sodium carbonate and read at 360, 449 nm on fluorescence plate reader (Biotek).
At 96 hours post infection, 100 μl of culture supernatant was removed from the treated and infected cultures and EnduRen live cell substrate (Promega) was added at a final concentration 1.3 μg/ml. Cells were incubated for 1.5 hours at 37° C. with 5% CO2 then read on a luminescence plate reader (Biotek).
For all assays, data was imported into Accelrys Assay Explorer 3.3. In Assay Explorer, % inhibition (antiviral or cytotoxicity) was calculated using the solvent control as a reference by the following equation: 1−(SignalCompound/SignalReference). The % Inhibition and compound concentration data was fitted using the following 4-parameter logistic model (Assay Explorer model 42):
[formula] where X is compound concentration, Y is % inhibition, D is the maximum % Inhibition (constrained to 100%), C is IC50 value or inflection point, B is the hill slope, and A is the minimum % inhibition (constrained to 0%). The IC50 value is reported as the EC50 or CC50 depending on the assay endpoint. EC50 represents the effective concentration at which virus replication is inhibited by 50 percent. CC50 represents the concentration that results in the death of 50 percent of the host cells. […]

The compound `COc1cc2c(cc1OCc1ccccc1)CCNC2/C=C/c1ccccc1N1CCOCC1` (centres unmarked) [DH, (E)-4-(2-(2-(6-(benzyloxy)-7-methoxy-1,2,3,4-tetrahydroisoquinolin-1-yl)vinyl)phenyl)morpholine] gave a concentration for a half-maximal effect (EC50) of 5.26 µM. The compound `COc1ccc2cc(/C=C/C3NCCc4cc(OCc5ccccc5)c(OC)cc43)ccc2c1` (centres unmarked) [DI, (E)-6-(benzyloxy)-7-methoxy-1-(2-(6-methoxynaphthalen-2-yl)vinyl)-1,2,3,4-tetrahydroisoquinoline] returned an EC50 of 0.628 µM. Take `COc1cc2c(cc1OCc1ccccc1)CCNC2/C=C/c1ccc(-c2cccnc2)cc1` (centres unmarked) [DJ]: the EC50 stood at 0.393 µM. The compound `COc1cc2c(cc1OCc1ccccc1)CCNC2/C=C/c1ccc(-n2ccnc2)cc1` (centres unmarked) [DK, (E)-1-(4-(1H-imidazol-1-yl)styryl)-6-(benzyloxy)-7-methoxy-1,2,3,4-tetrahydroisoquinoline] registered an EC50 of 0.107 µM. Then `COc1cc2c(cc1OCc1ccccc1)CCNC2/C=C/c1ccc2cccnc2c1` (stereo not drawn) [DL, (E)-7-(2-(6-(benzyloxy)-7-methoxy-1,2,3,4-tetrahydroisoquinolin-1-yl)vinyl)quinoline], with 0.0969 µM. In the case of `COc1cc2c(cc1OCc1ccccc1)CCNC2/C=C/c1ccc(-n2ccnc2C)cc1` (centres unmarked) [DM, (E)-6-(benzyloxy)-7-methoxy-1-(4-(2-methyl-1H-imidazol-1-yl)styryl)-1,2,3,4-tetrahydroisoquinoline], the midpoint of the response, the EC50, lay at 1.52 µM. This EC50 is about 16-fold higher than that of the compound before. `COc1cccc(-c2ncc(/C=C/C3NCCc4cc(OCc5ccccc5)c(OC)cc43)cn2)c1` (centres unmarked) [DN]: the response was half-maximal at 2.4 µM (EC50).

With `CCN1CCN(c2ccc(/C=C/C3NCCc4cc(OCc5ccccc5)c(OC)cc43)cc2)CC1` (centres unmarked) [DO, (E)-6-(benzyloxy)-1-(4-(4-ethylpyrazin-1-yl)styryl)-7-methoxy-1,2,3,4-tetrahydroisoquinoline], the response was half-maximal at 0.496 µM (EC50). For the compound `COc1cc2c(cc1OCc1ccccc1)CCNC2/C=C/c1cn(C)c2ncccc12` (centres unmarked) [DP], the EC50 is 0.015 µM. `COc1cc2c(cc1OCc1ccccc1)CCNC2/C=C/c1cccc(-c2ccncc2)c1` (centres unmarked) [DQ, 6-(Benzyloxy)-7-methoxy-1-[(E)-2-[3-(pyridin-4-yl)phenyl]ethenyl]-1,2,3,4-tetrahydroisoquinoline]: a half-maximal response (EC50) required 0.126 µM.

As to `COc1cc2c(cc1OCc1ccccc1)CCNC2/C=C/c1cscn1` (centres unmarked) [DR, 6-(Benzyloxy)-7-methoxy-1-[(E)-2-(1,3-thiazol-4-yl)ethenyl]-1,2,3,4-tetrahydroisoquinolin], a half-maximal response (EC50) required 4.82 µM. Then `COc1cc2c(cc1OCc1ccccc1)CCNC2/C=C/c1ccc(-c2cncnc2)cc1` (centres unmarked) [DS, 6-(Benzyloxy)-7-methoxy-1-[(E)-2-[4-(pyrimidin-5-yl)phenyl]ethenyl]-1,2,3,4-tetrahydroisoquinoline], with 0.116 µM; and `COc1cc2c(cc1OCc1ccccc1)CCNC2/C=C/c1ccc(-n2cncn2)cc1` (centres unmarked) [DT, 6-(Benzyloxy)-7-methoxy-1-[(E)-2-[4-(1H-1,2,4-triazol-1-yl)phenyl]ethenyl]-1,2,3,4-tetrahydroisoquinoline], with 0.157 µM. In turn, `COc1cc2c(cc1OCc1ccccc1)CCNC2/C=C/c1cc2ccccc2s1` (centres unmarked) [DU, 1-[(E)-2-(1-Benzothiophen-2-yl)ethenyl]-6-(benzyloxy)-7-methoxy-1,2,3,4-tetrahydroisoquinoline] displayed an EC50 of 10.1 µM. Then `COc1cc2c(cc1OCc1ccccc1)CCNC2/C=C/c1nccs1` (centres unmarked) [DV, 6-(Benzyloxy)-7-methoxy-1-[(E)-2-(1,3-thiazol-2-yl)ethenyl]-1,2,3,4-tetrahydroisoquinoline], with 29.5 µM; and `COc1cc2c(cc1OCc1ccccc1)CCNC2/C=C/c1ccc(N2CCN(C)CC2)cc1` (centres unmarked) [DW, 6-(Benzyloxy)-7-methoxy-1-[(E)-2-[4-(4-methylpiperazin-1-yl)phenyl]ethenyl]-1,2,3,4-tetrahydroisoquinoline], with 1.24 µM. In turn, `COc1cc2c(cc1OCc1ccccc1)CCNC2/C=C/c1ccccc1N1CCCCC1` (centres unmarked) [DX, 6-(Benzyloxy)-7-methoxy-1-[(E)-2-[2-(piperidin-1-yl)phenyl]ethenyl]-1,2,3,4-tetrahydroisoquinoline] returned a concentration for a half-maximal effect (EC50) of 4.2 µM. This EC50 lies about 3.4-fold higher than the previous one. For `COc1cc2c(cc1OCc1ccccc1)CCNC2/C=C/c1scnc1C` (centres unmarked) [DY, 5-[(E)-2-(6-Benzyloxy-7-methoxy-1,2,3,4-tetrahydroisoquinolin-1-yl)vinyl]-4-methyl-thiazole], a half-maximal response (EC50) required 5.51 µM.

The compound `COc1cc2c(cc1OCc1ccccc1)CCNC2/C=C/c1ccc(-c2ccccn2)cc1` (centres unmarked) [DZ, 6-Benzyloxy-7-methoxy-1-[(E)-2-[4-(2-pyridyl)phenyl]vinyl]-1,2,3,4-tetrahydroisoquinoline] had an EC50 of 0.65 µM. On to `COc1cc2c(cc1OCc1ccccc1)CCNC2/C=C/c1ccc(N2CCCCC2)cc1` (centres unmarked) [EA, 6-Benzyloxy-7-methoxy-1-[(E)-2-[4-(1-piperidyl)phenyl]vinyl]-1,2,3,4-tetrahydroisoquinoline], for which the EC50 was 2.1 µM. Then `COc1cc2occc2cc1/C=C/C1NCCc2cc(OCc3ccccc3)c(OC)cc21` (centres unmarked) [EB, 6-Benzyloxy-7-methoxy-1-[(E)-2-(6-methoxybenzofuran-5-yl)vinyl]-1,2,3,4-tetrahydroisoquinoline], with 0.3 µM; and `COc1cc2c(cc1OCc1ccccc1)CCNC2/C=C/c1cccc(-c2ncco2)c1` (centres unmarked) [EC, 2-[3-[(E)-2-(6-Benzyloxy-7-methoxy-1,2,3,4-tetrahydroisoquinolin-1-yl)vinyl]phenyl]oxazole], with 0.93 µM; and `COc1cc2c(cc1OCc1ccccc1)CCNC2/C=C/c1ccc(-c2ncco2)cc1` (centres unmarked) [ED, 2-[4-[(E)-2-(6-Benzyloxy-7-methoxy-1,2,3,4-tetrahydroisoquinolin-1-yl)vinyl]phenyl]oxazole], with 0.58 µM. In the case of `CCOC(=O)c1coc(-c2ccc(/C=C/C3NCCc4cc(OCc5ccccc5)c(OC)cc43)cc2)n1` (centres unmarked) [EE, Ethyl 2-[4-[(E)-2-(6-benzyloxy-7-methoxy-1,2,3,4-tetrahydroisoquinolin-1-yl)vinyl]phenyl]oxazole-4-carboxylate], the EC50 is 0.99 µM. `CCOC(=O)c1coc(-c2cccc(/C=C/C3NCCc4cc(OCc5ccccc5)c(OC)cc43)c2)n1` (centres unmarked) [EF, Ethyl 2-[3-[(E)-2-(6-benzyloxy-7-methoxy-1,2,3,4-tetrahydroisoquinolin-1-yl)vinyl]phenyl]oxazole-4-carboxylate] returned an EC50 of 1 µM. Take `COc1cc2c(cc1OCc1ccccc1)CCNC2/C=C/c1ccc2c(c1)OCC2` (centres unmarked) [EG, 6-Benzyloxy-1-[(E)-2-(2,3-dihydrobenzofuran-6-yl)vinyl]-7-methoxy-1,2,3,4-tetrahydroisoquinoline]: it took 0.9 µM to reach a half-maximal effect (EC50).

For the compound `COc1cc(OC)c(/C=C/C2NCCc3cc(OCc4ccccc4)c(OC)cc32)cc1C` (centres unmarked) [EH, 6-Benzyloxy-1-[(E)-2-(2,4-dimethoxy-5-methyl-phenyl)vinyl]-7-methoxy-1,2,3,4-tetrahydroisoquinolin], the response was half-maximal at 0.066 µM (EC50).

Consider `COc1ccc(/C=C/C2NCCc3cc(OCc4ccccc4)c(OC)cc32)cc1C` (centres unmarked) [EI, 6-Benzyloxy-7-methoxy-1-[(E)-2-(4-methoxy-3-methyl-phenyl)vinyl]-1,2,3,4-tetrahydroisoquinoline], for which the midpoint of the response, the EC50, lay at 0.34 µM. Compound `COc1cccc(/C=C/C2NCCc3cc(OCc4ccccc4)c(OC)cc32)c1` (centres unmarked) [EJ, 6-Benzyloxy-7-methoxy-1-[(E)-2-(3-methoxyphenyl)vinyl]-1,2,3,4-tetrahydroisoquinoline] returned a concentration giving a half-maximal response (EC50) of 2.98 µM.
